Key:
Assay in all cases: Nanosyn kinase profiling
Assay type in all cases: biochemical
Details in all cases: read-out: Percentage inhibition; for inhibition at 0.1 µM: 0.1 µM inhibitor; for inhibition at 1 µM: 1 µM inhibitor
DYRK1B = target: T1, DYRK1B (Homo sapiens, UniProt Q9Y463)
T1 construct: purchased Nanosyn (enzymatic panel); SGC in-house recombinant human kinases (DSF panel); Invitrogen (ALK1-6)
Method in brief: (§1)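 Percent inhibition of each kinase was measured with the inhibitor at 0.1 µM and at 1 µM, as part of a 200-kinase human selectivity panel.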

EPHA4 = target: T2, EPHA4 (Homo sapiens, UniProt P54764)
T2 construct: purchased Nanosyn (enzymatic panel); SGC in-house recombinant human kinases (DSF panel); Invitrogen (ALK1-6)
Method in brief: as §1

LYNA = target: T3, LYNA (Homo sapiens, UniProt P07948)
T3 construct: purchased Nanosyn (enzymatic panel); SGC in-house recombinant human kinases (DSF panel); Invitrogen (ALK1-6)
Method in brief: as §1

MARK3 = target: T4, MARK3 (Homo sapiens, UniProt P27448)
T4 construct: purchased Nanosyn (enzymatic panel); SGC in-house recombinant human kinases (DSF panel); Invitrogen (ALK1-6)
Method in brief: as §1

MARK4 = target: T5, MARK4 (Homo sapiens, UniProt Q96L34)
T5 construct: purchased Nanosyn (enzymatic panel); SGC in-house recombinant human kinases (DSF panel); Invitrogen (ALK1-6)
T5 sequence (Q96L34 1-752): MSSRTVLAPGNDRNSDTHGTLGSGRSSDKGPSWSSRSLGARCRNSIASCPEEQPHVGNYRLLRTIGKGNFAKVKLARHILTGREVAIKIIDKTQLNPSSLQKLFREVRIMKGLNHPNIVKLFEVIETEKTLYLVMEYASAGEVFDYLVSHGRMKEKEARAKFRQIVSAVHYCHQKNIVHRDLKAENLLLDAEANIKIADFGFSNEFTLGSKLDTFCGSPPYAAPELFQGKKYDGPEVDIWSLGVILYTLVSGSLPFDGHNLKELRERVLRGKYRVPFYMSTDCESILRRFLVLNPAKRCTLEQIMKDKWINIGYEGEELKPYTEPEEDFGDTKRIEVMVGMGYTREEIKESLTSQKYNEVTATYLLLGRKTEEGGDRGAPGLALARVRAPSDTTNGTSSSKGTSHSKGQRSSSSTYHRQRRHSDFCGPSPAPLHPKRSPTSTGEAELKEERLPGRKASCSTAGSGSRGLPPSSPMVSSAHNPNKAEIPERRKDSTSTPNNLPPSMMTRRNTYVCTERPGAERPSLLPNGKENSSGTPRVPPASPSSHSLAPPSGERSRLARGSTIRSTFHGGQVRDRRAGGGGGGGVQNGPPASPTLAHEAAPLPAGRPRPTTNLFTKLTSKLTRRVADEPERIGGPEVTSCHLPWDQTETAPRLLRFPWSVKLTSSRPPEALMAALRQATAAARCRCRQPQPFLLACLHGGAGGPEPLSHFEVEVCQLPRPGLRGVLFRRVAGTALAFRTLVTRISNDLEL
Method in brief: as §1

MSK1 = target: T6, MSK1 (Homo sapiens, UniProt O75582)
T6 construct: purchased Nanosyn (enzymatic panel); SGC in-house recombinant human kinases (DSF panel); Invitrogen (ALK1-6)
Method in brief: as §1

MST2 = target: T7, MST2 (Homo sapiens, UniProt Q13188)
T7 construct: purchased Nanosyn (enzymatic panel); SGC in-house recombinant human kinases (DSF panel); Invitrogen (ALK1-6)
T7 sequence (Q13188 1-491): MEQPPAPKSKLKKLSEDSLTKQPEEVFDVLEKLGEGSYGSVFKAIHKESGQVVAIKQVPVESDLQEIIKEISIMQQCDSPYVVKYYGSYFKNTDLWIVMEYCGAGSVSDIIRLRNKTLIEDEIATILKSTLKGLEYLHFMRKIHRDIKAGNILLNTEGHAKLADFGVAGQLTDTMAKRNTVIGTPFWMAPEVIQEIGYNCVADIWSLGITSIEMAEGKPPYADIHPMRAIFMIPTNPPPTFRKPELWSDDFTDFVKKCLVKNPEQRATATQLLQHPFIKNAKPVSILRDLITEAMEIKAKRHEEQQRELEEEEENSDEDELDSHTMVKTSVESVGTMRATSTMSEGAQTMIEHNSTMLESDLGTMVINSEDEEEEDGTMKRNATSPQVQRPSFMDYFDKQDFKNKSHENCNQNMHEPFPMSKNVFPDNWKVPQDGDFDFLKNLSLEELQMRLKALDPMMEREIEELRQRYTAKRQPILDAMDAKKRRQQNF
Method in brief: as §1

MST4 = target: T8, MST4 (Homo sapiens, UniProt Q9P289)
T8 construct: purchased Nanosyn (enzymatic panel); SGC in-house recombinant human kinases (DSF panel); Invitrogen (ALK1-6)
Method in brief: as §1

TXK = target: T9, TXK (Homo sapiens, UniProt P42681)
T9 construct: purchased Nanosyn (enzymatic panel); SGC in-house recombinant human kinases (DSF panel); Invitrogen (ALK1-6)
T9 sequence (P42681 1-527): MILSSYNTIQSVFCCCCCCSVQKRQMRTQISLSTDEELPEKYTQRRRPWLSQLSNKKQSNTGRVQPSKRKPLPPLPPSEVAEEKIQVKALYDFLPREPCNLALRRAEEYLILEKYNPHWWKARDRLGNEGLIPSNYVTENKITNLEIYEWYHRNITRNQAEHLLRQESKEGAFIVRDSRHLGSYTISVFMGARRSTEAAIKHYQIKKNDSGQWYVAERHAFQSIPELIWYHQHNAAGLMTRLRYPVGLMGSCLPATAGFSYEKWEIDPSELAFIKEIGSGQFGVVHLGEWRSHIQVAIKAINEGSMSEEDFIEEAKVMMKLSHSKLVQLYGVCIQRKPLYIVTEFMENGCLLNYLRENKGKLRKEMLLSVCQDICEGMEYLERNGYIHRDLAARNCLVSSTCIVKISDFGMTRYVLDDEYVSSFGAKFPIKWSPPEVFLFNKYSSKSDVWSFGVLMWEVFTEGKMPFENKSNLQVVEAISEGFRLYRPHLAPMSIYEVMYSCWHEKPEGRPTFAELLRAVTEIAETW
Method in brief: as §1

T8 sequence (Q9P289 whole entry): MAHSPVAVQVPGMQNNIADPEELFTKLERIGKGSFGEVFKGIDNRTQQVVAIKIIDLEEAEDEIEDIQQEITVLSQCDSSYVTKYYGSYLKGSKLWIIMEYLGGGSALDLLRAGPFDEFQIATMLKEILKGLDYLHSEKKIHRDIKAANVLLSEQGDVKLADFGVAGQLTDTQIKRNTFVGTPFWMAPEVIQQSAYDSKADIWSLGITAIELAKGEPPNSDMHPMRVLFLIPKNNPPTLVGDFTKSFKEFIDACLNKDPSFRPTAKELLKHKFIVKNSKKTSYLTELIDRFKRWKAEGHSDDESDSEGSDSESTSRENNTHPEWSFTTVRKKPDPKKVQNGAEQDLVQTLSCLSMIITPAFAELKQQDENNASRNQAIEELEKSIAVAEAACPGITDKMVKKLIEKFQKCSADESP
T1 sequence (Q9Y463 whole entry): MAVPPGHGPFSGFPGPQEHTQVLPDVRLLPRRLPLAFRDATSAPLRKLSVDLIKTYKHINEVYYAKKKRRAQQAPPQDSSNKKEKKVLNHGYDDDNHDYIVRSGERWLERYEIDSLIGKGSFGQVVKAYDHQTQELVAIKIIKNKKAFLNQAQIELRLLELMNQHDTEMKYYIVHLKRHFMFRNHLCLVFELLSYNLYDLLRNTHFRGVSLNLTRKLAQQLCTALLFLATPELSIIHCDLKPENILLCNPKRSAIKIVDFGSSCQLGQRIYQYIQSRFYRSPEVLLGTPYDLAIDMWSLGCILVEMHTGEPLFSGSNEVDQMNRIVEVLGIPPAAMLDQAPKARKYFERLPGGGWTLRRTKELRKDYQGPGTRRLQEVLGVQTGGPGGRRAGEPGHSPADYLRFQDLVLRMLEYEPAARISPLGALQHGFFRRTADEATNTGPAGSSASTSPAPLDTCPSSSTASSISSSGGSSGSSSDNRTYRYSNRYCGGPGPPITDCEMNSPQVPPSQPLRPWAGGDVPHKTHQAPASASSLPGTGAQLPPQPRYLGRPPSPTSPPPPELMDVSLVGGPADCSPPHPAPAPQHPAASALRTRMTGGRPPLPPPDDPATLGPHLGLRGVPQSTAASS
T2 sequence (P54764 20-986): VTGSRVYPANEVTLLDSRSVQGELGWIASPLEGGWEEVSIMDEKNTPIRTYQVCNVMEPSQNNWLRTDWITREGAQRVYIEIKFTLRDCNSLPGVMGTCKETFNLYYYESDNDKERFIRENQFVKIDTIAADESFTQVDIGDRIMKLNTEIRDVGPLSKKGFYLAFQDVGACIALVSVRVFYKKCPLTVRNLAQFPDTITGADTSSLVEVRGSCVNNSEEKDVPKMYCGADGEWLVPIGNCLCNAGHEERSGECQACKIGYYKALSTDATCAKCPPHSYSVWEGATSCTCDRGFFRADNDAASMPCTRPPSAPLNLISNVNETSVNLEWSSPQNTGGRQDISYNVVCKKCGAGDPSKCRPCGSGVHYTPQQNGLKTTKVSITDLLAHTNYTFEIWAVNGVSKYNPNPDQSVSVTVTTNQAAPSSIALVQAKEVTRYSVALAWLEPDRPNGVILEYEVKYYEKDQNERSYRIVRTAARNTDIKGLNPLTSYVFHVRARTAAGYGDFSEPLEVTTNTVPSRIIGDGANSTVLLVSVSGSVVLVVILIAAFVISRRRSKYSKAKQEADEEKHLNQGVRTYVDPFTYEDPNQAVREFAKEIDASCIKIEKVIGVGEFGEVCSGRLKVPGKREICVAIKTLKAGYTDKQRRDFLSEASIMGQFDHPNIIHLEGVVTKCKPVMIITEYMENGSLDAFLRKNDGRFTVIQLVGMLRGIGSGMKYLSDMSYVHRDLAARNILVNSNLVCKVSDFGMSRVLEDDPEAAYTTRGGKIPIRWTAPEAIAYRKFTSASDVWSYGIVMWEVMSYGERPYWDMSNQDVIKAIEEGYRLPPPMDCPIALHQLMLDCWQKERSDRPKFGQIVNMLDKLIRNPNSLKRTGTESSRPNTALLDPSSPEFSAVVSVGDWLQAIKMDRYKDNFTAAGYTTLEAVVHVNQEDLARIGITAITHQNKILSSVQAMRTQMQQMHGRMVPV
T6 sequence (O75582 whole entry): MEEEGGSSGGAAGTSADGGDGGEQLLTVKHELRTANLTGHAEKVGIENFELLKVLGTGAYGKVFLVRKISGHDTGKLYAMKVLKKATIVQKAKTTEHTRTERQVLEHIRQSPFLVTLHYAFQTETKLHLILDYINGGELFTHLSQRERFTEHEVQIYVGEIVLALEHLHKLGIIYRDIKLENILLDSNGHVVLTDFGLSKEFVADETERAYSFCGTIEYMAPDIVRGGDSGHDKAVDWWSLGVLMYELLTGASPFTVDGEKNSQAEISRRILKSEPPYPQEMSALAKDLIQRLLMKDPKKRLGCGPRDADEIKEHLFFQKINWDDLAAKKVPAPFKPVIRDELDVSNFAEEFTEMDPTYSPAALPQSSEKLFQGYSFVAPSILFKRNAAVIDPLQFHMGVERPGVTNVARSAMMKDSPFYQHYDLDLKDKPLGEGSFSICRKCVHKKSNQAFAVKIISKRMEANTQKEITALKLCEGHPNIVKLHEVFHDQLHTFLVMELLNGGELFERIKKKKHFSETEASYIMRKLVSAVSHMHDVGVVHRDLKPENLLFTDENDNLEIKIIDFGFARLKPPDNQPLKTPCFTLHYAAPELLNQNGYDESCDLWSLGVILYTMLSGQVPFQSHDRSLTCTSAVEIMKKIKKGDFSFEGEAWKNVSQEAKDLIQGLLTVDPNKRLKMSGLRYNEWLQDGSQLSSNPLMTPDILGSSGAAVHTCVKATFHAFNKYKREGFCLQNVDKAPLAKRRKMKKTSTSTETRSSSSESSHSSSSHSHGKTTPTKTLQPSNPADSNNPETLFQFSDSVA
T3 sequence (P07948 whole entry): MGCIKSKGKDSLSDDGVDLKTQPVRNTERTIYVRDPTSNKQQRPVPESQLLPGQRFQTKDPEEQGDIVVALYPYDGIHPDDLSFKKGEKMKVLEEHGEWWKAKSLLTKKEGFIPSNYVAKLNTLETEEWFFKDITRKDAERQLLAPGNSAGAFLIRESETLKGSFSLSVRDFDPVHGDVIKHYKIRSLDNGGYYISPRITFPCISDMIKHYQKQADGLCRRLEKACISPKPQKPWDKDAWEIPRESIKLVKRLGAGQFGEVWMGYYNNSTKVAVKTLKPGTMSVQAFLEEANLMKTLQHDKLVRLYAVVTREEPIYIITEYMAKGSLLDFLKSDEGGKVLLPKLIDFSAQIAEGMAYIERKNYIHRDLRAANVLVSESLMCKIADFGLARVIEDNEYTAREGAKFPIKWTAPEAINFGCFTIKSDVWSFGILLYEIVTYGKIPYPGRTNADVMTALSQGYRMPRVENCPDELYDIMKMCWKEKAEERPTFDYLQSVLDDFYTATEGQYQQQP
T4 sequence (P27448 whole entry): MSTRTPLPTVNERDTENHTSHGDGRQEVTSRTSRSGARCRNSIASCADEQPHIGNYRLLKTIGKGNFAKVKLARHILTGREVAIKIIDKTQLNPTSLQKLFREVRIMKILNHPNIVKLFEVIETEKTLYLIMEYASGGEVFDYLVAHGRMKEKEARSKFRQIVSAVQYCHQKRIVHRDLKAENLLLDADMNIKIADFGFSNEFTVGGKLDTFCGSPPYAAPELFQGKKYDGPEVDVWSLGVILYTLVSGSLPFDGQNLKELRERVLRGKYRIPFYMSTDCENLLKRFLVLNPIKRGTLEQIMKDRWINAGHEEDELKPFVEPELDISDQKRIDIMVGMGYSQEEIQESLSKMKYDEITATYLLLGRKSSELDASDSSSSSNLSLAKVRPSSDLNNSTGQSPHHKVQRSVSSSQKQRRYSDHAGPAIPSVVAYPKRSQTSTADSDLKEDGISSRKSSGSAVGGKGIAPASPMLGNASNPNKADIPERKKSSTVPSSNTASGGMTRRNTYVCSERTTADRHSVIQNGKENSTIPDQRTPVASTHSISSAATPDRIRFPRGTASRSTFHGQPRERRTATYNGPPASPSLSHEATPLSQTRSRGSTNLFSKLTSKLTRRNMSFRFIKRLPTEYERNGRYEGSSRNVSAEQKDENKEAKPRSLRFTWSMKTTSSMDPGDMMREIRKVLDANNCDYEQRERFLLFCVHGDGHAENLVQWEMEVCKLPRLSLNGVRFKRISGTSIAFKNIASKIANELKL

SMILES	inhibition at 0.1 µM (DYRK1B) [%]	inhibition at 1 µM (DYRK1B) [%]	inhibition at 0.1 µM (EPHA4) [%]	inhibition at 1 µM (EPHA4) [%]	inhibition at 0.1 µM (LYNA) [%]	inhibition at 1 µM (LYNA) [%]	inhibition at 0.1 µM (MARK3) [%]	inhibition at 1 µM (MARK3) [%]	inhibition at 0.1 µM (MARK4) [%]	inhibition at 1 µM (MARK4) [%]	inhibition at 0.1 µM (MSK1) [%]	inhibition at 1 µM (MSK1) [%]	inhibition at 0.1 µM (MST2) [%]	inhibition at 1 µM (MST2) [%]	inhibition at 0.1 µM (MST4) [%]	inhibition at 1 µM (MST4) [%]	inhibition at 0.1 µM (TXK) [%]	inhibition at 1 µM (TXK) [%]
COc1cc(-c2cc(-c3cccc(O)c3)cnc2N)cc(OC)c1OC [K02288, 3-[6-amino-5-(3,4,5-trimethoxy-phenyl)-pyridin-3-yl]-phenol]	2.6	6	-2	17	9.7	49	2.6	5.6	2.4	7.2	-2	-1	-2	-1	0.4	0	2.8	36
c1ccc2c(-c3cnn4cc(-c5ccc(N6CCNCC6)cc5)cnc34)ccnc2c1 [LDN-193189]	7.1	41	7.1	10	9.1	39	11	63	13	61	1.1	1.3	5.1	6	-1	-5	4.1	16
